Assay results from paper PMC10830462, “Molecular insights into the dynamic modulation of bacterial ClpP function and oligomerization by peptidomimetic boronate compounds” (Scientific Reports, 2024).

Legend:
Type in all cases: binding
[1] = target: T1, SeClpP (ClpP from Staphylococcus epidermidis) (Staphylococcus epidermidis, UniProt Q8CTE0); test: isothermal titration calorimetry; settings: read-out: K (converted)
T1 construct: codon-optimised ORF in pET28a(+), C-terminal His-tag, expressed in E. coli BL21(DE3) Star; homotetradecamer (about 300 kDa) of two stacked heptameric rings, heptamers also present without glycerol; catalytic triad Ser98, His123, Asp172
T1 sequence (Q8CTE0 1-194): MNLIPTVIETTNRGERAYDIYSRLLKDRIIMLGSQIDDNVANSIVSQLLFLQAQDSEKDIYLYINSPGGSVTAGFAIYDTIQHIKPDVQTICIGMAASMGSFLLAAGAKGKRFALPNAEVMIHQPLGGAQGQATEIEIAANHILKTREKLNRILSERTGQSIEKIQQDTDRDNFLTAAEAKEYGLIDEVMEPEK

[2] = target: T1, SeClpP (ClpP from Staphylococcus epidermidis); test: nanoDSF thermal shift; settings: 10 µM SeClpP, pH 7.5, 100 mM KCl, 2 mM DTT, no glycerol; covalent (reversible boronate)
[3] = target: T1, SeClpP (ClpP from Staphylococcus epidermidis); test: X-ray crystal structure, soaked crystals, […] Å; settings: catalytic site; covalent (boron to Ser98, reversible); crystals soaked with 10 mM ixazomib

SMILES: CC(C)C[C@H](NC(=O)CNC(=O)c1cc(Cl)ccc1Cl)B(O)O [ixazomib]
- Kd [1]: 5.38 µM
- melting temperature [2]: SeClpP bound to the peptidomimetic boronate, and therefore more thermostable
- X-ray crystal structure, soaked crystals, 2.33 Å [3]: the boron atom of ixazomib is covalently bound to Ser98
